Experimental data from US20110189306A1, “COMPOUNDS, COMPOSITIONS AND TREATMENTS FOR V-ATPase RELATED DISEASES” (priority 2010, published 2011).
“Also recorded” adds a separate entry of the source. Blank lines part the entries; values can stand above or below the compound they belong to.

How the values were obtained:
[1] = system: RANKL-differentiated RAW 264.7 cells; assay: Hydroxyapatite resorption on Corning Osteo-Assay Surface plates; type: cell-based, mouse; settings: for acid secretion of osteoclasts (in words): murine osteoclasts
Experimental: RAW 264.7 cells (American Type Culture Collection (ATCC), cat. no. TIB-71) were differentiated in the presence of 100 ng/ml RANKL on synthetic mineralized surfaces of Corning Osteo-Assay Surface 96-well plates (Corning Inc. Life Sciences, Lowell, Mass.; cat. no. 3988XX1). Cells were cultured for 5 days in 200 μl α-MEM (Grand Island Biological Co. (GIBCO)/Invitrogen Corp. cat. no. 12571-063) with 10% fetal bovine serum (FBS; (GIBCO/Invitrogen) cat. no. 10437-028, Lot 1233072). Exposure of cells to RANKL and KM91104 was continuous throughout the experiment. The complete medium was changed on the third day. On day 5, cells were removed using 3% sodium hypochlorite solution. Plates were air dried and then imaged using digital brightfield photomicrography (Leica DM IRE2 with OpenLab software, Leica Microsystems, Richmond Hill, Canada). Image analysis was carried out with NIH ImageJ software (National Institutes of Health, Bethesda, Md.). Concentrations of KM91104 (μM) in medium were as follows: a, control, vehicle only; b, 0.63; c, 1.25; d, 2.5; e, 5.0; f, 10; g, 20; h, 40.
The concentration range of KM91104 tested was from 0.3 to 40 μM, as indicated (see Materials and Methods). C indicates control, vehicle only added. […] Error bars indicate +/−SD (n=3).
Bone resorption (FIGS. 13 and 14) was assayed using the following method. RAW 264.7 cells were differentiated on synthetic mineralized surfaces in 96 well Corning Osteo Assay Surface plates with 100 ng/ml RANK ligand. Wells were simultaneously treated with the lead compound. Cells were cultured for 5 days in […] of α-MEM. The complete medium was changed on the third day. On day 5, cells were removed using 50% bleach solution. Plates were dried and imaged using digital brightfield photomicrograpy. Image analysis was carried out using ImageJ.

[2] = system: undifferentiated RAW 264.7 cells; assay: MTT assay to determine cytotoxicity; type: cell-based, mouse
Experimental: The concentration range of compound tested was from 0.3 to 40 μM, as indicated (n=3). Yellow MTT is converted to purple formazan by mitochondrial reductases. Formazan is measured spectrophotometrically to deduce metabolic activity of test cells. Reduced metabolic activity indicates metabolic dysfunction due to cytotoxicity. In this case, significant cytotoxicity is not seen up to 2.5 μM KM91104 concentration. C indicates control, vehicle only added. The test cell line was undifferentiated RAW 264.7 cells.

RAW 264.7 cells [3] = assay: Total solubilized TRAP assay of RANKL-mediated differentiation; type: cell-based, mouse; settings: 3 days of growth with RANKL, 0.3 to 40 μM tested
Experimental: The concentration range of compound tested was from 0.3 to 40 μM, as indicated (see Materials and Methods). C indicates control, vehicle only added. TRAP is a marker for osteoclast differentiation and will convert colorless p-nitrophenylphosphate to yellow nitrophenol under acidic conditions. The yellow color is quantified spectrophotometrically and indicates degree of differentiation after 3 days of growth with RANKL.

[4] = system: undifferentiated RAW 264.7 cells; assay: Protein assay on cell cultures (effect on cellular growth); type: cell-based, mouse; settings: for effect on cell growth, metabolic activity, cytotoxicity (in words): at 1.25 μM / at a concentration efficacious in inhibiting acid secretion; for concentration that did not significantly affect cell growth / total protein: undifferentiated RAW 264.7 cells, 0.3 to 40 μM tested, n=3
Experimental: Concentration range of compound tested was from 0.3 to 40 μM, as indicated (n=3, error bars are +/−SD). […] C indicates control, vehicle only added. The test cell line was undifferentiated RAW 264.7 cells.

RAW 264.7 cells [5] = assay: TRAP staining analysis (qualitative and cell counts) of RANKL-mediated differentiation and fusion; type: cell-based, mouse; settings: for effect on osteoclast formation, differentiation and fusion (in words): at 1.25 μM / at a concentration efficacious in inhibiting acid secretion, where stated
Experimental: The concentration range of compound tested was from 0.6 to 40 μM, as follows (in μM): a, control, vehicle only; b, 0.63; c, 1.25; d, 2.5; e, 5.0; f, 10; g, 20; h, 40. […] The latter observation is consistent with the conclusion of the protein assay of FIG. 7.
Plotted are cell counts for multinucleated cells with greater than 3 nuclei after treatment with compound KM91104. This figure confirms the qualitative conclusion of FIG. 10 that there is a drop off in the number of larger osteoclasts above 1.25 μM concentration.

[6] = system: mouse bone marrow-derived macrophages (BMM); assay: TRAP staining of osteoclasts RANKL-differentiated from bone marrow-derived macrophages; type: cell-based; settings: 1.25 μM
Experimental: Panels show: a, control, vehicle only; b and c are duplicates with 1.25 μM KM91104.

[7] = target: TRX-NTa3 fusion protein (TRX-G2-NTa3(1-393)), N-terminal domain of mouse V-ATPase subunit a3 fused to thioredoxin (mouse); assay: ELISA saturation curve, plate coated with TRX-NTa3, GST-B1 as analyte; apparent Kd from half-maximal binding
[8] = target: TRX-NTa3 fusion protein (TRX-G2-NTa3(1-393)), N-terminal domain of mouse V-ATPase subunit a3 fused to thioredoxin (mouse); assay: ELISA saturation curve, plate coated with TRX-NTa3, GST-B2 as analyte; apparent Kd from half-maximal binding
[9] = target: TRX-NTa3 fusion protein (TRX-G2-NTa3(1-393)), N-terminal domain of mouse V-ATPase subunit a3 fused to thioredoxin (mouse); assay: ELISA, plate coated with TRX-NTa3, GST-CTB2 as analyte; apparent Kd
[10] = target: TRX-NTa3 fusion protein (TRX-G2-NTa3(1-393)), N-terminal domain of mouse V-ATPase subunit a3 fused to thioredoxin (mouse); assay: ELISA, plate coated with TRX-NTa3, GST-NTB2 as analyte; apparent Kd
[11] = target: TRX-NTa3 fusion protein (TRX-G2-NTa3(1-393)), N-terminal domain of mouse V-ATPase subunit a3 fused to thioredoxin (mouse); assay: ELISA, plate coated with TRX-NTa3, GST-NTB2 against GST-B2(GH)

- IC50 ([1]; Mus musculus, RAW264.7, 120 h, 5 days, continuous exposure to RANKL and compound, image analysis of resorption areas, n=3, read-out: concentration for approximately half-maximal inhibition of resorption): ~1250 nM
- cell density (RAW 264.7 cells [5]; highest concentration (40 μM)): reduction of cell density
Compound: O=C(N/N=C/c1ccccc1O)c1ccc(O)c(O)c1 [KM91104, 3,4-dihydroxy-N′-(2-hydroxybenzylidene)benzohydrazide]
- effect on resorption (in words) ([1]; in vitro, synthetic mineralized surface, listed as lead compound): inhibited resorption without affecting osteoclast formation; also recorded: prevents bone resorption in vitro
- reduction in resorption ([1]; lowest concentration tested (range 0.3 to 40 μM)): Highly significant reduction in resorption
- acid secretion of osteoclasts (in words) ([1]; listed as lead compound): inhibits acid secretion
- acid secretion of osteoclasts (in words) ([1]; listed as the compound): significantly reduced acid secretion
- toxicity (in words) ([2]; murine RAW264.7 cells): low toxicity
- concentration up to which significant cytotoxicity is not seen (MTT) ([2]; undifferentiated RAW 264.7 cells, 0.3 to 40 μM tested, n=3): up to 2.5 μM
- concentration up to which differentiation / mature osteoclast formation is not appreciably affected (TRAP) (RAW 264.7 cells [3]): up to 20 μM
- concentration up to which differentiation / mature osteoclast formation is not appreciably affected (TRAP) (RAW 264.7 cells [3]; listed as lead compound): < 20 µM
- effect on cell growth, metabolic activity, cytotoxicity (in words) [4]: does not affect cell growth or cause cytotoxicity
- effect on cell growth, metabolic activity, cytotoxicity (in words) ([4]; listed as lead compound): no discernable effect on growth or metabolic activity
- concentration that did not significantly affect cell growth / total protein [4]: up to 20 μM
- concentration that did not significantly affect cell growth / total protein ([4]; listed as lead compound): < 20 µM
- concentration above which osteoclast size / number of larger osteoclasts (>3 nuclei) is reduced (fusion impaired) (RAW 264.7 cells [5]; RANKL-differentiated RAW 264.7, 0.6 to 40 μM tested): above 1.25 μM
- TRAP staining of cells (RAW 264.7 cells [5]; all concentrations, 0.63 to 40 μM): essentially all cells stain for TRAP
- effect on osteoclast formation, differentiation and fusion (in words) (RAW 264.7 cells [5]): does not affect osteoclast differentiation or fusion to form large osteoclasts
- effect on osteoclast formation, differentiation and fusion (in words) (RAW 264.7 cells [5]; listed as lead compound): limited effect on their ability to differentiate or undergo fusion
- effect on osteoclast formation, differentiation and fusion (in words) (RAW 264.7 cells [5]; listed as the compound): little effect on osteoclast formation and differentiation
- concentration that does not affect osteoclast fusion (RAW 264.7 cells [5]; summary of FIGS. 10 and 11): < 5 µM
- formation / maturation of large BMM-derived osteoclasts [6]: does not significantly affect the formation of large osteoclasts
- formation / maturation of large BMM-derived osteoclasts ([6]; listed as lead compound): does not affect BMM derived osteoclast maturation

- Kd [7]: 2.3 nM
Compound: GST-B1(GH) fusion protein (GST-G2-B1(1-513)-G2H6G2), full length mouse V-ATPase subunit B1 fused to glutathione-S-transferase (from UniProt Q91YH6)

- Kd [8]: 2.4 nM
Compound: GST-B2(GH) fusion protein (GST-G2-B2(1-511)-G2H6G2), full length mouse V-ATPase subunit B2 fused to glutathione-S-transferase

- Kd [9]: 4.1 nM
Compound: GST-CTB2 fusion protein (GST-G2-B2(148-511)), C-terminal domain of mouse V-ATPase subunit B2 fused to glutathione-S-transferase

- Kd [10]: 230 nM
- fold reduction of binding against the full-length B2 subunit [11]: 60 fold
Compound: GST-NTB2 fusion protein (GST-G2-B2(1-112)), N-terminal domain of mouse V-ATPase subunit B2 fused to glutathione-S-transferase
